{"source": "paper PMC8639922", "about": "“KSHV transactivator-derived small peptide traps coactivators to attenuate MYC and inhibits leukemia and lymphoma cell growth” (Communications Biology, 2021)", "tested_on": "MYC promoter and putative enhancer regions", "experiment": "CUT&RUN qPCR, H3K27Ac modification", "assay_type": "cell-based, human", "design": "key: enrichment normalized to spiked-in luciferase plasmid DNA control", "details": "spiked-in luciferase plasmid control", "from_the_text": "We next examined the molecular mechanism of MYC down-regulation by VGN50. We first utilized Cleavage under targets & release using nuclease (CUT&RUN)-sequencing to examine histone modifications that are known to be associated with enhancers in order to map putative MYC enhancer regions in PEL cells (Fig. 5a). Genome-wide CUT&RUN studies identified putative enhancer and promoter regulatory regions that are marked by H3K27Ac, H3K4me1, POLR2A (RNAPII), BRD4, and SMARCC1, a component of the SWI/SNF complex (Fig. 1b and 5a). The identified putative MYC enhancers were also in good agreement with previous ChIP Hi-C[53] and ChIP-seq data sets[54]. Specific primer pairs were then designed to amplify the respective enhancer regions and to examine regulation of coactivator complex recruitment by VGN50.\nFig. 5 A molecular mechanism of VGN50-mediated MYC-down-regulation. a Cleavage under targets & release using nuclease (CUT&RUN). CUT&RUN was performed with BCBL-1 and BC-1 with the indicated antibodies. Enrichment of active histone modifications, and occupancies of RNAPII and SWI/SNF components at the MYC genomic region are shown as peaks. One of the biological duplicate samples for the BCBL-1 cell line is presented. […] The MYC promoter, enhancer, and negative control regions used for qPCR analyses are indicated with shading. The positions of the MYC coding region, CASC11 coding region, and long non-coding RNA, PVT1, MIR1208 are shown in the panel. b VGN50 inhibits coactivator complex recruitment and c reduces H3K27Ac modification. qPCR is used to examine enrichment of DNA fragments in the presence of VGN50 or mutant peptide (24 μM). Peptide was applied 1 h prior to processing samples for CUT&RUN to replicate SLAM-seq experimental conditions. Non-specific IgG control was also included and enrichment with IgG control at each genomic region was set as 1 for b, and spiked-in luciferase plasmid DNA was used for additional internal control for c. d Formation of a larger protein complex with VGN50. Sucrose gradient sedimentation was used to monitor changes in protein complex formation in the presence of VGN50. The experiment flow chart is shown at the top of this panel. Fractions were collected from top (#1) to bottom (#23/24). Sample #24 without peptide is a smaller fraction of residual samples. Immunoblotting was performed on the odd number samples and the remaining fraction (#24 for no peptide sample) and probed with Flag-tagged SWI/SNF components (SMARCA4, SMARCC2, and SMARCB1). The position of each protein component based on molecular size is indicated. e KSHV K-Rta colocalizes with SWI/SNF components in reactivating BCBL-1 cells. TREx-BCBL-1 cells were triggered for reactivation by treatment with Dox and TPA for 28 h and stained with the indicated antibodies. Images were acquired with Keyence fluorescence microscopy. f A model for VGN50 molecular action. A model depicting the putative molecular action of VGN50 is presented. Coactivator complexes are dynamically assembled on enhancer and promoter regions via transcription factor binding. VGN50, an IDR fragment derived from an exceptionally potent viral transactivator, flexibly interacts with components of coactivators and traps them, thus reduces the available resources for cellular enhancers to activate MYC promoters.\nCUT&RUN[72] was performed essentially by following the online protocol developed by Dr. Henikoff’s lab with a few modifications to fit our needs. Cells were washed with PBS and wash buffer [20 mM HEPES-KOH pH 7.5, 150 mM NaCl, 0.5 mM Spermidine (Sigma, S2626), and proteinase inhibitor (Roche)]. After removing the wash buffer, cells were captured on magnetic concanavalin A (ConA) beads (Polysciences, PA, USA) in the presence of CaCl2. […]", "note": "Square brackets hold non-standard residues; d marks the D form. Peptide text beside a SMILES is read from it. Orn = NCCC[C@H](N)C(=O)O; βAla = NCCC(=O)O", "data": [{"smiles": "CC(C)C[C@H](NC(=O)CCNC(=O)[C@H](CCCNC(=N)N)NC(=O)[C@H](CCCNC(=N)N)NC(=O)[C@H](CCCNC(=N)N)NC(=O)[C@H](CCCN)NC(=O)[C@H](CCCNC(=N)N)NC(=O)[C@H](CCCNC(=N)N)NC(=O)[C@H](CCCCN)NC(=O)[C@H](CCCCN)NC(=O)[C@H](N)CCCNC(=N)N)C(=O)N[C@@H](CO)C(=O)N[C@@H](CO)C(=O)N[C@@H](C)C(=O)N[C@@H](C)C(=O)N[C@@H](C)C(=O)NCC(=O)N[C@@H](CC(C)C)C(=O)N[C@@H](Cc1ccc(O)cc1)C(=O)N[C@@H](CCC(N)=O)C(=O)N[C@@H](CC(C)C)C(=O)N[C@@H](CC(=O)O)C(=O)N[C@H](C(=O)O)[C@@H](C)O", "note": "[Mt-P] (H-[dR]KKRR[Orn]RRR[βAla]LSSAAAGLYQLDT-OH; N-terminus and C-terminus assumed)", "values": [{"measurement": "H3K27Ac enrichment, CUT&RUN qPCR", "setting": "region Cont., peptide 24 μM 1 h, replicate 1", "result": 1.234}, {"measurement": "H3K27Ac enrichment, CUT&RUN qPCR", "setting": "region Cont., peptide 24 μM 1 h, replicate 2", "result": 1.768}, {"measurement": "H3K27Ac enrichment, CUT&RUN qPCR", "setting": "region Cont., peptide 24 μM 1 h, replicate 3", "result": 1.486}, {"measurement": "H3K27Ac enrichment, CUT&RUN qPCR", "setting": "region E3, peptide 24 μM 1 h, replicate 1", "result": 2.706}, {"measurement": "H3K27Ac enrichment, CUT&RUN qPCR", "setting": "region E3, peptide 24 μM 1 h, replicate 2", "result": 2.727}, {"measurement": "H3K27Ac enrichment, CUT&RUN qPCR", "setting": "region E3, peptide 24 μM 1 h, replicate 3", "result": 2.006}, {"measurement": "H3K27Ac enrichment, CUT&RUN qPCR", "setting": "region E4, peptide 24 μM 1 h, replicate 1", "result": 25.383}, {"measurement": "H3K27Ac enrichment, CUT&RUN qPCR", "setting": "region E4, peptide 24 μM 1 h, replicate 2", "result": 24.888}, {"measurement": "H3K27Ac enrichment, CUT&RUN qPCR", "setting": "region E4, peptide 24 μM 1 h, replicate 3", "result": 21.090}, {"measurement": "H3K27Ac enrichment, CUT&RUN qPCR", "setting": "region E5, peptide 24 μM 1 h, replicate 1", "result": 8.581}, {"measurement": "H3K27Ac enrichment, CUT&RUN qPCR", "setting": "region E5, peptide 24 μM 1 h, replicate 2", "result": 8.863}, {"measurement": "H3K27Ac enrichment, CUT&RUN qPCR", "setting": "region E5, peptide 24 μM 1 h, replicate 3", "result": 8.913}, {"measurement": "H3K27Ac enrichment, CUT&RUN qPCR", "setting": "region P1, peptide 24 μM 1 h, replicate 1", "result": 6.685}, {"measurement": "H3K27Ac enrichment, CUT&RUN qPCR", "setting": "region P1, peptide 24 μM 1 h, replicate 2", "result": 5.570}, {"measurement": "H3K27Ac enrichment, CUT&RUN qPCR", "setting": "region P1, peptide 24 μM 1 h, replicate 3", "result": 7.094}]}]}
